How the values were obtained:
barnyard grass [1] = experiment: Herbicidal test for paddy field; assay type: in vivo, Eschinochloa crusgalli; conditions: 500 g/ha, dropwise addition to paddy water at 1.5 leaf stage of barnyard grass; glass house 25° C., 3 weeks; rank 0-5 vs non-treated district
Outline: (§1)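 Wettable-powder formulations in water with 0.05% surfactant were dripped onto flooded (3 cm) Ube alluvial-soil pots at 500 g/ha, applied at barnyard grass 1.5-leaf stage. Plants were kept in a glasshouse at 25° C. for 3 weeks. Damage was scored 0 (normal) to 5 (all killed) versus untreated plants.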

bulrush = experiment: Herbicidal test for paddy field; assay type: in vivo, Scrips juncoides; conditions: 500 g/ha, dropwise addition to paddy water at 1.5 leaf stage of barnyard grass; glass house 25° C., 3 weeks; rank 0-5 vs non-treated district
Outline: as §1

Cyperus serotinus Rottb. = experiment: Herbicidal test for paddy field; assay type: in vivo; conditions: 500 g/ha, dropwise addition to paddy water at 1.5 leaf stage of barnyard grass; glass house 25° C., 3 weeks; rank 0-5 vs non-treated district
Outline: as §1

corn [2] = experiment: Soil treatment test for upland field; assay type: in vivo; set-up: key: 0 = normal development, 5 = all killed; conditions: 500 g/ha, 3 weeks, glass house 25° C.
Outline: (§2)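 Surface spray of freshly sown alluvial soil, 500 g/ha compound, water containing 0.05% surfactant. Visual 0–5 damage rating versus untreated after 3 weeks, glasshouse at 25° C average.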

solgum [3] = experiment: Soil treatment test for upland field; assay type: in vivo; set-up: key: 0 = normal development, 5 = all killed; conditions: 500 g/ha, 3 weeks, glass house 25° C.
Outline: as §2

soybean [4] = experiment: Soil treatment test for upland field; assay type: in vivo; set-up: key: 0 = normal development, 5 = all killed; conditions: 500 g/ha, 3 weeks, glass house 25° C.
Outline: as §2

sugar beat [5] = experiment: Soil treatment test for upland field; assay type: in vivo; set-up: key: 0 = normal development, 5 = all killed; conditions: 500 g/ha, 3 weeks, glass house 25° C.
Outline: as §2

wheat [6] = experiment: Soil treatment test for upland field; assay type: in vivo; set-up: key: 0 = normal development, 5 = all killed; conditions: 500 g/ha, 3 weeks, glass house 25° C.
Outline: as §2

cotton [7] = experiment: Soil treatment test for upland field; assay type: in vivo; conditions: 500 g/ha, 3 weeks, glass house 25° C.
Experimental: The herbicidal effects are evaluated according to the following 6 ranks as compared with non-treated district. (0: normal development, 1: Less damaged, 2: Slightly damaged, 3: Moderately damaged, 4: Severely damaged, 5: All killed). Incidentally, “-” in the column means not investigated.
Wagner pots, each having an area of 1/5000 are, were packed with Ube soil (alluvial soil), and then each seed of corn, soybean, cotton, wheat, solgum, sugar beat, Large crabgrass, barnyard grass, green foxtail, blackgrass, annual bluegrass, common lambsquarters, livid amaranth, velvetleaf, morning glory, common Cocklebur (Xanthium strumarium) and sicklepod (Cassia obtusifolia) were planted and covered with soil.
Each wettable powder of the desired compounds (I) shown in Tables 1 to 21, 24, 25, 28 and 29 prepared in accordance with Example 2 was diluted with water containing a surfactant (0.05%) and uniformly sprayed on the surface of each soil so that an effective concentration of the compound (I) in each herbicide became 500 g/ha.
These plants were controlled in a glass house at an average temperature of 25° C. for 3 weeks, and then herbicidal effects thereof were investigated.
The herbicidal effects were evaluated according to the evaluation method described in the above (1).

Large crabgrass [8] = experiment: Soil treatment test for upland field; assay type: in vivo, Digitaria adscendens; set-up: key: 0 = normal development, 5 = all killed; conditions: 500 g/ha, 3 weeks, glass house 25° C.
Outline: as §2

barnyard grass [9] = experiment: Soil treatment test for upland field; assay type: in vivo, Eschinochloa crusgalli; set-up: key: 0 = normal development, 5 = all killed; conditions: 500 g/ha, 3 weeks, glass house 25° C.
Outline: as §2

green foxtail [10] = experiment: Soil treatment test for upland field; assay type: in vivo, Setaria viridis; set-up: key: 0 = normal development, 5 = all killed; conditions: 500 g/ha, 3 weeks, glass house 25° C.
Outline: as §2

blackgrass [11] = experiment: Soil treatment test for upland field; assay type: in vivo, Alopecurus aegualis; set-up: key: 0 = normal development, 5 = all killed; conditions: 500 g/ha, 3 weeks, glass house 25° C.
Outline: as §2

annual bluegrass [12] = experiment: Soil treatment test for upland field; assay type: in vivo, Poa annua; set-up: key: 0 = normal development, 5 = all killed; conditions: 500 g/ha, 3 weeks, glass house 25° C.
Outline: as §2

common lambsquarters [13] = experiment: Soil treatment test for upland field; assay type: in vivo, Chenopodium album; set-up: key: 0 = normal development, 5 = all killed; conditions: 500 g/ha, 3 weeks, glass house 25° C.
Outline: as §2

livid amaranth [14] = experiment: Soil treatment test for upland field; assay type: in vivo, Amaranthus lividus; set-up: key: 0 = normal development, 5 = all killed; conditions: 500 g/ha, 3 weeks, glass house 25° C.
Outline: as §2

velvetleaf [15] = experiment: Soil treatment test for upland field; assay type: in vivo, Abutilon theophrasti; set-up: key: 0 = normal development, 5 = all killed; conditions: 500 g/ha, 3 weeks, glass house 25° C.
Outline: as §2

morning glory [16] = experiment: Soil treatment test for upland field; assay type: in vivo, Ipomoea spps.; set-up: key: 0 = normal development, 5 = all killed; conditions: 500 g/ha, 3 weeks, glass house 25° C.
Outline: as §2

corn [17] = experiment: Foliar spread test for upland field; assay type: in vivo; set-up: key: 0 = normal development, 5 = all killed (6 ranks vs. untreated); conditions: foliar spray, 500 ppm, 3 weeks, glass house 25° C.
Outline: (§3)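 Plants grown about 2 weeks at 25 °C in volcanic ash soil were sprayed with wettable powder diluted to 500 ppm in water with 0.5% surfactant. After 3 weeks at 25 °C, damage was scored 0 (normal) to 5 (all killed) against untreated plants.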

cotton [18] = experiment: Foliar spread test for upland field; assay type: in vivo; set-up: key: 0 = normal development, 5 = all killed (6 ranks vs. untreated); conditions: foliar spray, 500 ppm, 3 weeks, glass house 25° C.
Outline: as §3

solgum [19] = experiment: Foliar spread test for upland field; assay type: in vivo; set-up: key: 0 = normal development, 5 = all killed (6 ranks vs. untreated); conditions: foliar spray, 500 ppm, 3 weeks, glass house 25° C.
Outline: as §3

soybean [20] = experiment: Foliar spread test for upland field; assay type: in vivo; set-up: key: 0 = normal development, 5 = all killed (6 ranks vs. untreated); conditions: foliar spray, 500 ppm, 3 weeks, glass house 25° C.
Outline: as §3

sugar beat [21] = experiment: Foliar spread test for upland field; assay type: in vivo; set-up: key: 0 = normal development, 5 = all killed (6 ranks vs. untreated); conditions: foliar spray, 500 ppm, 3 weeks, glass house 25° C.
Outline: as §3

wheat [22] = experiment: Foliar spread test for upland field; assay type: in vivo; set-up: key: 0 = normal development, 5 = all killed (6 ranks vs. untreated); conditions: foliar spray, 500 ppm, 3 weeks, glass house 25° C.
Outline: as §3

Large crabgrass [23] = experiment: Foliar spread test for upland field; assay type: in vivo, Digitaria adscendens; set-up: key: 0 = normal development, 5 = all killed (6 ranks vs. untreated); conditions: foliar spray, 500 ppm, 3 weeks, glass house 25° C.
Outline: as §3

barnyardgrjass = experiment: Foliar spread test for upland field; assay type: in vivo, Eschinochloa crusgalli; set-up: key: 0 = normal development, 5 = all killed (6 ranks vs. untreated); conditions: foliar spray, 500 ppm, 3 weeks, glass house 25° C.
Outline: as §3

green foxtail [24] = experiment: Foliar spread test for upland field; assay type: in vivo, Setaria viridis; set-up: key: 0 = normal development, 5 = all killed (6 ranks vs. untreated); conditions: foliar spray, 500 ppm, 3 weeks, glass house 25° C.
Outline: as §3

blackgrass [25] = experiment: Foliar spread test for upland field; assay type: in vivo, Alopecurus aegualis; set-up: key: 0 = normal development, 5 = all killed (6 ranks vs. untreated); conditions: foliar spray, 500 ppm, 3 weeks, glass house 25° C.
Outline: as §3

annual bluegrass [26] = experiment: Foliar spread test for upland field; assay type: in vivo, Poa annua; set-up: key: 0 = normal development, 5 = all killed (6 ranks vs. untreated); conditions: foliar spray, 500 ppm, 3 weeks, glass house 25° C.
Outline: as §3

common lambsquarters [27] = experiment: Foliar spread test for upland field; assay type: in vivo, Chenopodium album; set-up: key: 0 = normal development, 5 = all killed (6 ranks vs. untreated); conditions: foliar spray, 500 ppm, 3 weeks, glass house 25° C.
Outline: as §3

livid amaranth [28] = experiment: Foliar spread test for upland field; assay type: in vivo, Amaranthus lividus; set-up: key: 0 = normal development, 5 = all killed (6 ranks vs. untreated); conditions: foliar spray, 500 ppm, 3 weeks, glass house 25° C.
Outline: as §3

velvetleaf [29] = experiment: Foliar spread test for upland field; assay type: in vivo, Abutilon theophrasti; set-up: key: 0 = normal development, 5 = all killed (6 ranks vs. untreated); conditions: foliar spray, 500 ppm, 3 weeks, glass house 25° C.
Outline: as §3

morning glory [30] = experiment: Foliar spread test for upland field; assay type: in vivo, Ipomoea spps.; set-up: key: 0 = normal development, 5 = all killed (6 ranks vs. untreated); conditions: foliar spray, 500 ppm, 3 weeks, glass house 25° C.
Outline: as §3

Structure (SMILES)	Effects Corn (corn [2])	Effects Solgum (solgum [3])	Effects Sugar beat (sugar beat [5])	Effects Wheat (wheat [6])	Effects Sotton (cotton [7])	Effects Large crabgrass (Large crabgrass [8])	Effects Barnyardgrass (barnyard grass [9])	Effects Green foxtail (green foxtail [10])	Effects Blackgrass (blackgrass [11])	Effects Annual bluegrass (annual bluegrass [12])	Effects Common lambsquarters (common lambsquarters [13])	Effects Livid amaranth (livid amaranth [14])	Effects Velvetleaf (velvetleaf [15])	Effects Morning glory (morning glory [16])	Effects Corn (corn [17])	Effects Sotton (cotton [18])	Effects Solgum (solgum [19])	Effects Soybean (soybean [20])	Effects Sugar beat (sugar beat [21])	Effects Wheat (wheat [22])	further results
CCC(O)(Cc1ccc(F)c(C(F)(F)F)c1)c1nc2cc(Cl)ccc2o1 (stereo not drawn) [I-d-11, 1-(5-chlorobenzoxazol-2-yl)-1-(4-fluoro-3-trifluoromethylbenzyl)propanol]	–	–	–	–	–	–	–	–	–	–	–	–	–	–	–	–	–	–	–	–	melting point: 90 to 93 °C
CC/C(=C\c1ccc(F)c(C(F)(F)F)c1)c1nc2cc(Cl)ccc2o1 [I-c-54, (E)-2-(5-chlorobenzoxazol-2-yl)-1-(4-fluoro-3-trifluoromethylphenyl)butene]	1	2	5	1	3	5	5	5	5	5	5	5	5	5	3	3	3	4	5	2	Effects Barnyardgrass (barnyard grass [1]): 5; Effects Bulrush (bulrush): 3; Effects Cyperus serotinus Rottb. (Cyperus serotinus Rottb.): 3; Effects Soybean (soybean [4]): 5; Effects Large crabgrass (Large crabgrass [23]): 4; Effects Barnyardgrass (barnyardgrjass): 2; Effects Green foxtail (green foxtail [24]): 4; Effects Blackgrass (blackgrass [25]): 4; Effects Annual bluegrass (annual bluegrass [26]): 4; Effects Common lambsquarters (common lambsquarters [27]): 5; Effects Livid amaranth (livid amaranth [28]): 5; Effects Velvetleaf (velvetleaf [29]): 3; Effects Morning glory (morning glory [30]): 3
CCC(F)(Cc1ccc(F)c(C(F)(F)F)c1)c1nc2cc(Cl)ccc2o1 (stereo not drawn) [I-d-13, 1-(5-chlorobenzoxazol-2-yl)-1-(4-fluoro-3-trifluoromethylbenzyl)propyl fluoride]	0	0	5	0	0	5	2	5	4	5	5	5	5	1	2	5	1	5	5	1	Effects Large crabgrass (Large crabgrass [23]): 2; Effects Barnyardgrass (barnyardgrjass): 1; Effects Green foxtail (green foxtail [24]): 2; Effects Blackgrass (blackgrass [25]): 1; Effects Annual bluegrass (annual bluegrass [26]): 1; Effects Common lambsquarters (common lambsquarters [27]): 5; Effects Livid amaranth (livid amaranth [28]): 5; Effects Velvetleaf (velvetleaf [29]): 4; Effects Morning glory (morning glory [30]): 5

From patent US7402548B2, “Benzoxazole compounds, process for producing the same and herbicides” (Kyoyu Agri Co., Ltd., priority 2000, dated 2008)
